Assay results as given in patent US20260274892A1, “MACROCYCLIC BROAD SPECTRUM ANTIBIOTICS” (RQx Pharmaceuticals, Inc., priority 2017, published 2026).

Columns and labels:
[1] = system: Methicillin Resistant Staphylococcus aureus strain USA 200; test: Minimum inhibitory concentration (MIC), CLSI broth micro-dilution, S. aureus; format: cell-based; conditions: Staphylococcus aureus, MRSA / USA200; Table 6; MRSA USA 200; cation adjusted Mueller Hinton Broth + 0.002% Tween-80; 35° C., 22 hours
Experimental: In vitro antimicrobial activity of each compound was determined by measuring minimal inhibitor concentrations (MICs) using the broth micro-dilution technique as approved by the Clinical and Laboratory Standards Institute (CLSI) (Methods for Dilution Antimicrobial Susceptibility Tests for Bacteria that Grow Aerobically; Approved Standard-Eighth Edition. CLSI document M07-A8. Wayne, PA: Clinical and Laboratroy Standards; 2009). Antibacterial activity was measure against two strains of bacteria: a Methicillin Resistant Staphylococcus aureus strain USA 200, (S. aureus) and Escherichia coli ATCC 25922 (E. coli), a clinically relevant Gram-negative strain. Cells were inoculated onto plates of Trypyticase Soy Agar or Luria Agar respectively and grown at 35° C. for 20 hours. Inocula suspensions were prepared by scraping cells into 1 mL of testing media (cation adjusted Mueller Hinton Broth supplemented with 0.002% v/v Tween-80) and diluting to a final OD600nm of 0.01.
Test compounds were prepared in DMSO at a concentration of 10 mg/mL. In protocol 1, the compound stocks were diluted into testing media at a concentration of 64 µg/ml and serial 2-fold dilutions were made in the same media, in 96-well U bottom microtiter dishes, for a total of 10 compound concentrations. In protocol 2, the compound stocks were diluted into testing media at a concentration of 4 µg/mL and serial 2-fold dilutions were made in the same media, in 96-well U bottom microtiter dishes, for a total of 10 compound concentrations. In protocol 3, compound stocks were diluted into testing media at a concentration of 0.5 μg/mL, with serial 2-fold dilutions conducted as described above. In protocol 4, compound stocks were diluted into testing media at a concentration of […], with serial 2-fold dilutions conducted as described above. Inocula suspensions were added to the 2-fold serial dilutions of test compounds to a final density of GD OD600nm of 0.0005 and incubated at 35° C. for 22 hours.

[2] = system: Escherichia coli ATCC 25922; test: Minimum inhibitory concentration (MIC), CLSI broth micro-dilution, E. coli; format: cell-based; conditions: Escherichia coli, ATCC25922, 22 h, Table 6, cation adjusted Mueller Hinton Broth + 0.002% Tween-80, 35° C.
Method in brief: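 Colonies grown 20 h at 35° C on Trypticase Soy agar (MRSA) or Luria agar (E. coli) were suspended in cation-adjusted Mueller Hinton broth with 0.002% Tween-80. Suspensions were added at OD600 0.0005 to 10-point twofold compound dilutions, then incubated 22 h at 35° C.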

MIC [1] | MIC [2] | Compound
0.012 µM | 0.097 µM | Cc1nc(-c2ccc(CC3CCCC3)cc2)ncc1C(=O)N[C@@H](CCN)C(=O)N(C)[C@@H]1C(=O)N[C@@H](C)C(=O)N[C@H](C(=O)NCC#N)Cc2ccc(OCCN)c(c2)-c2cc1ccc2OCCN (racemic) [Compound 218, rac-(8S,11S,14S)-3,18-bis(2-aminoethoxy)-N-(cyanomethyl)-11-methyl-14-[methyl-[rac-(2S)-4-amino-2-[[2-[4-(cyclopentylmethyl)phenyl]-4-methyl-pyrimidine-5-carbonyl]amino]butanoyl]amino]-10,13-dioxo-9,12-diazatricyclo[13.3.1.12,6]icosa-1(18),2(20),3,5,15(19),16-hexaene-8-carboxamide]
0.016 µM | 0.25 µM | C[C@@H]1NC(=O)[C@@H](N(C)C(=O)[C@H](CCN)NC(=O)c2cnc(-c3ccc(C(C)(C)C)cc3)cc2N)c2ccc(OCCN)c(c2)-c2cc(ccc2OCCN)C[C@@H](C(=O)NCC#N)NC1=O (racemic) [Compound 411, rac-(8S,11S,14S)-3,18-bis(2-aminoethoxy)-N-(cyanomethyl)-11-methyl-14-[methyl-[rac-(2S)-4-amino-2-[[4-amino-6-(4-tert-butylphenyl)pyridine-3-carbonyl]amino]butanoyl]amino]-10,13-dioxo-9,12-diazatricyclo[13.3.1.12,6]icosa-1(18),2(20),3,5,15(19),16-hexaene-8-carboxamide]
0.012 µM | 0.13 µM | Cc1nc(-c2ccc(CC(C)C)cc2)nc(C)c1C(=O)N[C@@H](CCN)C(=O)N(C)[C@@H]1C(=O)N[C@@H](C)C(=O)N[C@H](C(=O)NCC#N)Cc2ccc(OCCN)c(c2)-c2cc1ccc2OCCN (racemic) [Compound 258, rac-(8S,11S,14S)-3,18-bis(2-aminoethoxy)-N-(cyanomethyl)-11-methyl-14-[methyl-[rac-(2S)-4-amino-2-[[2-(4-isobutylphenyl)-4,6-dimethyl-pyrimidine-5-carbonyl]amino]butanoyl]amino]-10,13-dioxo-9,12-diazatricyclo[13.3.1.12,6]icosa-1(18),2(20),3,5,15(19),16-hexaene-8-carboxamide]
0.031 µM | 1 µM | CCCCCCc1ncc(-c2ccc(C(=O)N[C@@H](CCN)C(=O)N(C)[C@@H]3C(=O)N[C@@H](C)C(=O)N[C@H](C(=O)NCC#N)Cc4ccc(OCCN)c(c4)-c4cc3ccc4OCCN)c(C(F)F)c2)cn1 (racemic) [Compound 388, rac-(8S,11S,14S)-3,18-bis(2-aminoethoxy)-N-(cyanomethyl)-11-methyl-14-[methyl-[rac-(2S)-4-amino-2-[[2-(difluoromethyl)-4-(2-hexylpyrimidin-5-yl)benzoyl]amino]butanoyl]amino]-10,13-dioxo-9,12-diazatricyclo[13.3.1.12,6]icosa-1(18),2(20),3,5,15(19),16-hexaene-8-carboxamide]
0.016 µM | 0.094 µM | Cc1nc(-c2ccc(OC3C[C@@H]4CC[C@H]3C4)cc2)nc(C)c1C(=O)N[C@@H](CCN)C(=O)N(C)[C@@H]1C(=O)N[C@@H](C)C(=O)N[C@H](C(=O)NCC#N)Cc2ccc(OCCN)c(c2)-c2cc1ccc2OCCN (mixture of isomers) [Compound 350, rac-(8S,11S,14S)-3,18-bis(2-aminoethoxy)-N-(cyanomethyl)-11-methyl-14-[methyl-[rac-(2S)-4-amino-2-[[4,6-dimethyl-2-[4-[rac-(1S,4R)-norboman-2-yl]oxyphenyl]pyrimidine-5-carbonyl]amino]butanoyl]amino]-10,13-dioxo-9,12-diazatricyclo[13.3.1.12,6]icosa-1(18),2(20),3,5,15(19),16-hexaene-8-carboxamide]
0.016 µM | 0.13 µM | Cc1nc(-c2ccc(C(C)(C)c3ccccc3)cc2)ncc1C(=O)N[C@@H](CCN)C(=O)N(C)[C@@H]1C(=O)N[C@@H](C)C(=O)N[C@H](C(=O)NCC#N)Cc2ccc(OCCN)c(c2)-c2cc1ccc2OCCN (racemic) [Compound 236, rac-(8S,11S,14S)-3,18-bis(2-aminoethoxy)-N-(cyanomethyl)-11-methyl-14-[methyl-[rac-(2S)-4-amino-2-[[4-methyl-2-[4-(1-methyl-1-phenyl-ethyl)phenyl]pyrimidine-5-carbonyl]amino]butanoyl]amino]-10,13-dioxo-9,12-diazatricyclo[13.3.1.12,6]icosa-1(18),2(20),3,5,15(19),16-hexaene-8-carboxamide]
0.047 µM | 0.75 µM | Cc1cc(-c2ccc(C(C)(C)C)cc2N)nc(C)c1C(=O)N[C@@H](CCN)C(=O)N(C)[C@@H]1C(=O)N[C@@H](C)C(=O)N[C@H](C(=O)NCC#N)Cc2ccc(OCCN)c(c2)-c2cc1ccc2OCCN (racemic) [Compound 369, rac-(8S,11S,14S)-3,18-bis(2-aminoethoxy)-N-(cyanomethyl)-11-methyl-14-[methyl-[rac-(2S)-4-amino-2-[[6-(2-amino-4-tert-butyl-phenyl)-2,4-dimethyl-pyridine-3-carbonyl]amino]butanoyl]amino]-10,13-dioxo-9,12-diazatricyclo[13.3.1.12,6]icosa-1(18),2(20),3,5,15(19),16-hexaene-8-carboxamide]
0.067 µM | 1.1 µM | Cc1nc(-c2cccc(OC(C)C)c2)ncc1C(=O)N[C@@H](CCN)C(=O)N(C)[C@@H]1C(=O)N[C@@H](C)C(=O)N[C@H](C(=O)NCC#N)Cc2ccc(OCCN)c(c2)-c2cc1ccc2OCCN (racemic) [Compound 251, rac-(8S,11S,14S)-3,18-bis(2-aminoethoxy)-N-(cyanomethyl)-11-methyl-14-[methyl-[rac-(2S)-4-amino-2-[[2-(3-isopropoxyphenyl)-4-methyl-pyrimidine-5-carbonyl]amino]butanoyl]amino]-10,13-dioxo-9,12-diazatricyclo[13.3.1.12,6]icosa-1(18),2(20),3,5,15(19),16-hexaene-8-carboxamide]
0.021 µM | 8.2 µM | Cc1nc2cc(-c3ccc(C(C)(C)C)cc3)ccn2c1C(=O)N[C@@H](CCN)C(=O)N(C)[C@@H]1C(=O)N[C@@H](C)C(=O)N[C@H](C(=O)NCC#N)Cc2ccc(OCCN)c(c2)-c2cc1ccc2OCCN (racemic) [Compound 393, rac-(8S,11S,14S)-3,18-bis(2-aminoethoxy)-N-(cyanomethyl)-11-methyl-14-[methyl-[rac-(2S)-4-amino-2-[[7-(4-tert-butylphenyl)-2-methyl-imidazo[1,2-a]pyridine-3-carbonyl]amino]butanoyl]amino]-10,13-dioxo-9,12-diazatricyclo[13.3.1.12,6]icosa-1(18),2(20),3,5,15(19),16-hexaene-8-carboxamide]
0.13 µM | 2 µM | Cc1nc(-c2ccc(C(C)(C)C)cc2)nc(O)c1C(=O)N[C@@H](CCN)C(=O)N(C)[C@@H]1C(=O)N[C@@H](C)C(=O)N[C@H](C(=O)NCC#N)Cc2ccc(OCCN)c(c2)-c2cc1ccc2OCCN (racemic) [Compound 423, rac-(8S,11S,14S)-3,18-bis(2-aminoethoxy)-N-(cyanomethyl)-11-methyl-14-[methyl-[rac-(2S)-4-amino-2-[[2-(4-tert-butylphenyl)-4-hydroxy-6-methyl-pyrimidine-5-carbonyl]amino]butanoyl]amino]-10,13-dioxo-9,12-diazatricyclo[13.3.1.12,6]icosa-1(18),2(20),3,5,15(19),16-hexaene-8-carboxamide]

Compound | MIC [1] | MIC [2]
Cc1nc(-c2ccc(OCCC(C)(C)C)cc2)nc(C)c1C(=O)N[C@@H](CCN)C(=O)N(C)[C@@H]1C(=O)N[C@@H](C)C(=O)N[C@H](C(=O)NCC#N)Cc2ccc(O)c(c2)-c2cc1ccc2OCCN (racemic) [Compound 539, rac-(8S,11S,14S)-18-(2-aminoethoxy)-N-(cyanomethyl)-3-hydroxy-11-methyl-14-[methyl-[rac-(2S)-4-amino-2-[[2-[4-(3,3-dimethylbutoxy)phenyl]-4,6-dimethyl-pyrimidine-5-carbonyl]amino]butanoyl]amino]-10,13-dioxo-9,12-diazatricyclo[13.3.1.12,6]icosa-1(18),2(20),3,5,15(19),16-hexaene-8-carboxamide] | 0.023 µM | 0.15 µM
